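Compound exposure: 48 hours, 5 concentrations, 96-well plates. At the GI50, growth is halved. TGI: total growth inhibition.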
Columns and labels:
Assay in all cases: DTP human tumour cell line panel, 48 h
[1] = system: NCI-H522 lung
[2] = system: UO-31 renal
[3] = system: MDA-MB-231 breast
[4] = system: SF-268 CNS
[5] = system: SW-620 colon
[6] = system: U251 CNS
[7] = system: OVCAR-3 ovarian
[8] = system: HS 578T breast
[9] = system: DU-145 prostate
[10] = system: HCC-2998 colon
[11] = system: COLO 205 colon
[12] = system: MDA-MB-435
[13] = system: SN12C renal
[14] = system: UACC-62 melanoma
[15] = system: K-562 leukemia
[16] = system: SF-539 CNS
[17] = system: HCT-116 colon
[18] = system: NCI-H226 lung
[19] = system: IGROV1 ovarian
[20] = system: PC-3 prostate
[21] = system: BT-549 breast
[22] = system: SF-295 CNS
[23] = system: M14 melanoma
[24] = system: 786-0 renal
[25] = system: CCRF-CEM leukemia
[26] = system: TK-10 renal
[27] = system: NCI-H23 lung
[28] = system: HOP-62 NSCLC
[29] = system: OVCAR-4 ovarian
[30] = system: HT29 colon
[31] = system: OVCAR-5 ovarian
[32] = system: OVCAR-8 ovarian
[33] = system: KM12 colon
[34] = system: SNB-19 CNS
[35] = system: MALME-3M melanoma
[36] = system: EKVX NSCLC
[37] = system: UACC-257 melanoma
[38] = system: HCT-15 colon
[39] = system: SK-OV-3 ovarian
[40] = system: LOX IMVI melanoma
[41] = system: NCI/ADR-RES ovarian
[42] = system: SNB-75 CNS
[43] = system: ACHN renal
[44] = system: A498 renal
[45] = system: RXF 393 renal
[46] = system: SK-MEL-5 melanoma
[47] = system: RPMI-8226 leukemia
[48] = system: HL-60(TB) leukemia
[49] = system: MOLT-4 leukemia
[50] = system: SK-MEL-2 melanoma
[51] = system: SK-MEL-28 melanoma
[52] = system: HOP-92 NSCLC
[53] = system: A549 NSCLC
[54] = system: NCI-H460 lung
[55] = system: CAKI-1 renal
[56] = system: MCF7 breast
[57] = system: T-47D breast

`O=C(N[C@@H](c1ccc(Cl)c(Cl)c1)C1CNC1)c1ccc2cnccc2c1` showed a GI50 [1] of 721 nM, a TGI [1] of 9.2 µM and a GI50 [2] of 543 nM. For the same compound, the TGI [2] was 10 µM, the GI50 [3] was 639 nM and the TGI [3] was 15 µM. The GI50 [4] was 924 nM, the TGI [4] was 3.16 µM and the GI50 [5] was 410 nM. For the same compound, the TGI [5] was 12.3 µM, the GI50 [6] was 475 nM and the TGI [6] was 4.26 µM. It also gave a GI50 [7] of 1560 nM, a TGI [7] of 13.2 µM and a GI50 [8] of 25.6 nM. For the same compound, the TGI [8] was 483 nM, the GI50 [9] was 644 nM and the TGI [9] was 13.2 µM. The GI50 [10] was 246 nM, the TGI [10] was 3.51 µM and the GI50 [11] was 194 nM. It also gave a TGI [11] of 1290 nM, a GI50 [12] of 216 nM and a TGI [12] of 3.81 µM. It also gave a GI50 [13] of 715 nM, a TGI [13] of 7.45 µM and a GI50 [14] of 171 nM. For the same compound, the TGI [14] was 866 nM, the GI50 [15] was 3.2 µM and the TGI [15] was over 40.3 µM. For the same compound, the GI50 [16] was 40.8 nM, the TGI [16] was 798 nM and the GI50 [17] was 330 nM. It also gave a TGI [17] of 10.4 µM, a GI50 [18] of 626 nM and a TGI [18] of 5.43 µM. It also gave a GI50 [19] of 32.4 nM, a TGI [19] of 4.69 µM and a GI50 [20] of 486 nM. For the same compound, the TGI [20] was 17.2 µM, the GI50 [21] was 301 nM and the TGI [21] was 1670 nM. It also gave a GI50 [22] of 91.4 nM, a TGI [22] of 1210 nM and a GI50 [23] of 343 nM. It also gave a TGI [23] of 8.4 µM, a GI50 [24] of 67.6 nM and a TGI [24] of 2340 nM. The GI50 [25] was 189 nM, the TGI [25] was 14.6 µM and the GI50 [26] was 133 nM. It also gave a TGI [26] of 3.09 µM, a GI50 [27] of 336 nM and a TGI [27] of 10.8 µM. It also gave a GI50 [28] of 340 nM, a TGI [28] of 11.5 µM and a GI50 [29] of 1800 nM. The TGI [29] was 12.7 µM, the GI50 [30] was 206 nM and the TGI [30] was 12.1 µM. The GI50 [31] was 340 nM, the TGI [31] was 14.2 µM and the GI50 [32] was 1450 nM. For the same compound, the TGI [32] was 5.07 µM, the GI50 [33] was 314 nM and the TGI [33] was 4.44 µM. It also gave a GI50 [34] of 649 nM, a TGI [34] of 10.7 µM and a GI50 [35] of 138 nM. The TGI [35] was 700 nM, the GI50 [36] was 288 nM and the TGI [36] was 16.9 µM. For the same compound, the GI50 [37] was 490 nM, the TGI [37] was 4.84 µM and the GI50 [38] was 1600 nM. It also gave a TGI [38] of 12 µM, a GI50 [39] of 239 nM and a TGI [39] of 6.86 µM. The GI50 [40] was 716 nM, the TGI [40] was 3.71 µM and the GI50 [41] was 12.1 µM. For the same compound, the TGI [41] was 27.1 µM, the GI50 [42] was under 12.5 nM and the TGI [42] was 264 nM. For the same compound, the GI50 [43] was 904 nM, the TGI [43] was 12 µM and the GI50 [44] was 157 nM. It also gave a TGI [44] of 1360 nM, a GI50 [45] of 23 nM and a TGI [45] of 191 nM. It also gave a GI50 [46] of 2850 nM, a TGI [46] of 12.1 µM and a GI50 [47] of 1560 nM. The TGI [47] was 8.87 µM, the GI50 [48] was 534 nM and the TGI [48] was 3.89 µM. The GI50 [49] was 106 nM, the TGI [49] was 6.18 µM and the GI50 [50] was 520 nM. It also gave a TGI [50] of 3.06 µM, a GI50 [51] of 301 nM and a TGI [51] of 3.43 µM. The GI50 [52] was 44.4 nM, the TGI [52] was 3.34 µM and the GI50 [53] was 417 nM. For the same compound, the TGI [53] was 12.5 µM, the GI50 [54] was 214 nM and the TGI [54] was 11 µM. The GI50 [55] was 68 nM, the TGI [55] was 2270 nM and the GI50 [56] was 200 nM. The TGI [56] was 1590 nM, the GI50 [57] was 59.1 nM and the TGI [57] was 3.57 µM.

Source: PubChem BioAssay (NCI)
